Test system: PEG28-ITIM
Test: SPR of SHP-1 injected over immobilised PEG28-ITIM: tethered/solution catalysis and reach (MPDPDE fit)
Type: biochemical, mouse
Description: A construct expressing murine SHP-1 with an N-terminal 6× His tag was provided by M. H. Brown. Mutation of the SH2 domains was performed using a quick-change strategy. The mutations introduced were R30K and R33E for the N-terminal SH2 domain mutant and R136K for the C-terminal SH2 domain mutant previously shown to result in loss of binding ([6]). All peptides were ordered from PeptideSynthetics and were certified to be >95% pure. Peptides sequences were derived from the membrane-proximal ITIM sequence of mouse LAIR-1 receptor.
Experiments were performed on a Biacore 3000 instrument (GE Healthcare Life Sciences). All experiments were performed at 10°C and with a buffer flow rate of 10 μl/min. The buffer used was Hepes-buffered saline (HBS-EP; GE Healthcare Life Sciences), which contained 10 mM Hepes (pH 7.4), 150 mM NaCl, 3 mM EDTA, and 0.005% Surfactant P20.
A CM5 sensorchip was coupled with streptavidin to near saturation (typically between 4000 and 7000 RU) using the amine coupling kit (GE Healthcare Life Sciences) as described previously ([42]). After streptavidin was coupled, biotinylated peptides were injected to give the indicated concentrations in experimental flow cells, and excess biotin-binding sites were blocked with biotin in HBS-EP. The molar ratio of peptide to streptavidin was kept below 1:1 to ensure that peptide immobilization was random and not clustered on the tetravalent streptavidin molecules. Reference flow cells were treated with buffer and then blocked with biotin; pilot experiments using unphosphorylated control peptides in reference flow cells were indistinguishable from buffer-treated reference flow cells when injected with SHP-1. The chip surface was then conditioned with 5 × 5-min injections of HBS-EP. SHP-1 protein in HBS-EP with 1 mM dithiothreitol was then injected over reference and experimental flow cells in series for 5 min at the indicated concentrations. All SPR data were converted from the reference-subtracted data (in resonance units) to fraction bound by dividing the resonance units by the theoretical maximum resonance units expected if the experimental flow cell was saturated with bound SHP-1.
To determine the concentration of peptide in the assays, we first needed a conversion factor between the resonance units and the mass of peptide at the chip surface. We determined this conversion factor by injecting four concentrations of SHP-1 over a control flow cell on a CM5 chip and plotting the mass of SHP-1 injected against the raw resonance unit change. We repeated this on seven flow cells across four sensor chips to get an average slope of 149 ± 15 RU per g/liter (±SEM). This constant, together with the molecular weight of the peptide, was used to convert between the resonance units of peptides immobilized and the molar concentration at the chip surface. For example, 48.5 RU of PEG28-ITIM (molecular weight, 3221) was immobilized to obtain [peptide] = 97.1 μM (Fig. 2A).
From the MPDPDE model–simulated SPR traces, one would predict that the kcat*(solution) (fig. S4, G and H) and L (fig. S4F) are likely to be very sensitive to small systematic errors in the SPR trace at longer time scales. Nonspecific binding and baseline drift are two well-known sources of such systemic errors that can produce artifacts at long time scales (see fig. S6A for examples). To exclude data affected by these artifacts, we propose a simple quality control check that greatly improves the accuracy of estimating L, kcat*(tethered) , and kcat*(solution) . As a measure of the signal-to-noise ratio at long time points, we took the resonance units 20 s after the injection was completed (noise) and divided it by the resonance units 20 s before the injection finished (signal). […] Data that had evidence of significant artifact were excluded from the study based on this criterion (red data points in fig. S6B). […]

## SHP-1: murine SHP-1 tyrosine phosphatase with an N-terminal 6× His tag, expressed in E. coli
SHP-1 variants over PEG28-ITIM, average fit Fig. 6B: WT n = 15, N-SH2 mutant n = 3, C-SH2 mutant n = 9
  L (reach parameter), SH2 variants: 23.0 nm
Assuming complete open transition on SH2 binding, kcat*(solution) = 0.05 kcat*(tethered)
  share of time spent in open active conformation in solution: 5%
Average of all experiments Fig. 4C, n = 15, SEM printed ± 1.3 × 10^-2, wild-type SHP-1, PEG28-ITIM, 10°C, HBS-EP pH 7.4
  k*cat (tethered): 11800 M⁻¹ s⁻¹
Average of all experiments Fig. 4C, n = 15, SEM ± 0.46, wild-type SHP-1, PEG28-ITIM, 10°C, HBS-EP pH 7.4
  L (reach parameter): 23 nm
Average of all experiments Fig. 4C, n = 15, SEM ± 1.15 × 10^-4, wild-type SHP-1, PEG28-ITIM, 10°C, HBS-EP pH 7.4
  k*cat (solution): 603 M⁻¹ s⁻¹
wild-type SHP-1, PEG28-ITIM, kcat*(tethered) versus kcat*(solution)
  increase in tethered over solution catalytic rate (allosteric activation): 20 fold
